From patent publication US9260710B2, “Photocleavable linker” (City of Hope, priority 2012, dated 2016)

Columns and labels:
[1] = target: T1, LC8 and FKBP-LC8TRAP (Homo sapiens, UniProt P62942, F37V); assay: Native PAGE of LC8-LC8TRAP complex formation induced by dimerizer; assay type: biochemical; conditions: for complex formation between LC8 and FKBP-LC8TRAP (new band): native PAGE, addition of dimerization agent
T1 construct: made in house; host or cells: bacteria (pET21D vector)
Description: Native PAGE. Each of, LC8 and FKBP-LC8TRAP, were mixed in a molar concentration of 50 μM and 1.2 molar excess (60 μM) of AP20187 or 2.4 molar excess (120 μM) of PhAP20187. The mix were incubated at 4° C. for 5 min. Native PAGE analysis was performed at 16° C. using 8-25% gradient gels on the PHASTSYSTEM™ (GE Biosciences).
We then tested whether this replacement of the amine linker with the o-nitrobenzyl moiety affected the dimerization of FKBP in vitro. We used native PAGE to follow the formation of the LC8-LC8 molecular trap (LC8TRAP) complex induced by addition of PhAP. See e.g., Varma et al., 2010 (Id.) Upon the addition of PhAP to an equimolar mixture of LC8 and LC8TRAP, we observed a new band that migrated the same distance as the band produced by addition of AP (FIG. 2A).
Native PAGE analysis was conducted for stoichiometric complex formation between LC8 and FKBP-LC8TRAP on addition of dimerization agent AP.

[2] = test system: EGFP-FKBP-LC8TRAP transfected COS1 cells; assay: Endosome dispersion (EEA1 staining) in trap-transfected cells; assay type: cell-based; conditions: for time of drug treatment after which maximum dispersion was reached: unchanged with further increase in time; for maximum number of cells with dispersed endosomes: 2 h, dimerizer concentrations greater than 500 nM; for drug concentration at which maximum dispersion is seen: 2 hrs treatment, unchanged with further increase in concentration
Description: (§1) Cell Culture. COS1 cells were cultured in DMEM (CELLGRO®) supplemented with 10% fetal bovine/calf serum (Omega Scientific). Transfection was performed in 80-90% confluent 24-h cultures of COS1 cells using LIPOFECTAMINE™ 2000 (Invitrogen) and OPTI-MEM™ media (GIBCO®) according to the manufacturer's recommendations. Various concentrations (0 nM to 1000 nM) of AP (Ariad Pharmaceuticals Inc.) and PhAP (as described herein) were added to each experimental wells 24 hr. post transfection and incubated for different periods of time before analyzing the cells. For reversibility of endosome dispersion studies, 500 nM of AP/PhAP were used. In each case, the cells were washed well with PBS and supplemented with fresh media before inducing with UV light (10 mins., 4 W, 350 nm) and allowed to recover for various time period at 37° C., before analysis.
(§2) Immunostaining and Microscopy. For immunostaining, transiently transfected COS1 cells were fixed with 3.7% formaldehyde at room temperature for 10 min, and subsequent immunostaining was performed as described previously^[2]. Briefly, COS 1 cells grown on 25-mm coverslips were washed 3× with PBS, treated with 3.7% formaldehyde (Sigma) in PBS for fixation, and permeabilized in 0.5% Triton X-100 (Sigma) in PBS at room temperature for 10 min. Cells were then incubated with blocking buffer containing 4% skimmed milk (fat free) and 0.5% Triton X-100 in PBS. Anti-EEA1 monoclonal antibody was added to label early endosome marker protein at a dilution of 1:100 in the same buffer for 30 min at RT, and the coverslips were washed and incubated with rhodamine-conjugated donkey anti-mouse secondary antibody (1:100). After washing, the coverslips were mounted on slides to visualize the trapping effects. Samples were viewed using an Olympus IX81 automated inverted microscope equipped with water immersion 60× objective. The level of dispersion was quantified by counting 100 cells per coverslip. Each experiment was performed in triplicate. Images were obtained using a Spot RT Slider high-resolution cooled CCD camera equipped to IX81 microscope and Image-Pro software. Images were cropped and processed using Adobe Photoshop 7.0 (Adobe Systems).
To determine if these biochemical results had relevance in cells, we investigated if photocleavage of PhAP could reverse the endosome dispersion phenotype induced by LC8TRAP and AP. First, we established that PhAP behaved in a similar intracellular manner as AP. To this end, we used a green fluorescent protein (GPF) analog of the trap, EGFP-FKBP-LC8TRAP to identify cells that expressed the trap. COS1 cells were transiently transfected with EGFP-FKBP-LC8TRAP for 24 h, after which they were treated with PhAP or AP (0 nM-1000 nM) for 2 h. Cells were then fixed and stained with an early endosome marker 1 (EEA1). The number of cells with dispersed endosomes after treatment with PhAP or AP was indistinguishable. The maximum number of cells with dispersed endosomes (67.5±7.0% for PhAP and 64.1±7.6% for non-photocleavable AP), was obtained at dimerizer concentrations greater than 500 nM. The rate of dispersion was also similar using either dimerizing agent, and no changes were observed past 2 hours. The values obtained for both AP and PhAP are also in agreement with our previous studies. See e.g., Varma et al., 2010 (Id.)

[3] = test system: EGFP-FKBP-LC8TRAP transfected COS1 cells; assay: Reversibility of endosome dispersion after UV induction; assay type: cell-based; conditions: for Percentage of endosomes dispersion (recovery): UV 10 min
Description: as §1, §2
UV induction. For UV-induction and recovery of endosome studies, cells were washed with PBS and fresh media were added after drug treatment. The washed cells were then treated with a hand held UV-lamp (365 nm/4 watt) for 10 mins. The cells were then left to recover at 37° C. for varying period of time before staining and analysis.
Next, we characterized the reversibility of endosome dispersion in COS1 cells UV-induced cleavage of PhAP. In these experiments, transiently transfected cells were incubated with PhAP (500 nM) or AP for times ranging from 0-2 h, after which cells were washed rapidly, replenished with fresh media, and then exposed to UV light (10 min, 4 W, 350 nm). The cells were then fixed at 0, 1, 2, 4, and 8 h post UV radiation and the endosomes imaged using fluorescence microscopy at 60× magnification. We observed a gradual recovery of endosomes to the perinuclear region during the first 4 h after UV exposure (44.1±2.3%), with a slight increase in dispersion after 8 h (48.9±3.9%), for cells treated with PhAP (FIG. 3A).

[4] = 500 nM, time 0.167 Hr (10 min.)
[5] = 30 mins. treatment (500 nM), recovery 0 h
[6] = 30 mins. treatment (500 nM), recovery 1 h
[7] = 30 mins. treatment (500 nM), recovery 2 h
[8] = 30 mins. treatment (500 nM), recovery 4 h
[9] = 30 mins. treatment (500 nM), recovery 8 h
[10] = 1 hr. treatment (500 nM), recovery 0 h
[11] = 1 hr. treatment (500 nM), recovery 1 h
[12] = 1 hr. treatment (500 nM), recovery 2 h
[13] = 1 hr. treatment (500 nM), recovery 4 h
[14] = 1 hr. treatment (500 nM), recovery 8 h
[15] = 2 hr. treatment (500 nM), recovery 0 h
[16] = 2 hr. treatment (500 nM), recovery 1 h
[17] = 2 hr. treatment (500 nM), recovery 2 h
[18] = 2 hr. treatment (500 nM), recovery 4 h
[19] = 2 hr. treatment (500 nM), recovery 8 h

T1 sequence (P62942 with tags, fused parts or gaps F37V): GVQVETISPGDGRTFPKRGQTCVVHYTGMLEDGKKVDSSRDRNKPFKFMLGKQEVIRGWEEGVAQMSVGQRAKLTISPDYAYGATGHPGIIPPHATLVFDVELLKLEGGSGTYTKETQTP

Structure (SMILES) | complex formation between LC8 and FKBP-LC8TRAP (new band) [1] | Percentage of endosomes dispersion ([2]; 10 nM, 2 hr. of treatment) [%] | Percentage of endosomes dispersion ([2]; 20 nM, 2 hr. of treatment) [%] | Percentage of endosomes dispersion ([2]; 100 nM, 2 hr. of treatment) [%] | Percentage of endosomes dispersion ([2]; 500 nM, 2 hr. of treatment) [%] | Percentage of endosomes dispersion ([2]; 500 nM, time 0 Hr) | Percentage of endosomes dispersion [2, 4] [%] | Percentage of endosomes dispersion ([2]; 500 nM, time 0.5 Hr) [%] | Percentage of endosomes dispersion ([2]; 500 nM, time 1 Hr) [%] | Percentage of endosomes dispersion ([2]; 500 nM, time 2 Hr) [%] | Percentage of endosomes dispersion ([2]; 500 nM, time 4 Hr) [%] | time of drug treatment after which maximum dispersion was reached ([2]; 500 nM) [h] | Percentage of endosomes dispersion ([2]; 1000 nM, 2 hr. of treatment) [%] | maximum number of cells with dispersed endosomes [2] [%] | drug concentration at which maximum dispersion is seen [2] [nM] | Percentage of endosomes dispersion (recovery) [3, 5] [%] | Percentage of endosomes dispersion (recovery) [3, 6] [%] | Percentage of endosomes dispersion (recovery) [3, 7] [%] | Percentage of endosomes dispersion (recovery) [3, 8] [%] | Percentage of endosomes dispersion (recovery) [3, 9] [%] | further results
CCC(C(=O)N1CCCCC1C(=O)OC(CCc1ccc(OC)c(OC)c1)c1cccc(OCC(=O)NCC(CNC(=O)COc2cccc(C(CCc3ccc(OC)c(OC)c3)OC(=O)C3CCCCN3C(=O)C(CC)c3cc(OC)c(OC)c(OC)c3)c2)CN(C)C)c1)c1cc(OC)c(OC)c(OC)c1 (stereo not shown) [AP, AP20187] | produces a new band | 44.4 ± 2.4 | 53.0 ± 3.5 | 56.2 ± 1.6 | 64.1 ± 7.6 | 30.2 ± 2.8% | 45.0 ± 2.6 | 53.6 ± 6.5 | 53.8 ± 2.9 | 69.8 ± 4.3 | 70.9 ± 2.1 | 2 | 66.4 ± 2.5 | 64.1±7.6 | 500 | 51.8 ± 4.4 | 64.7 ± 2.0 | 68.3 ± 3.7 | 69.8 ± 4.3 | 67.9 ± 1.9 | endosome dispersion after UV exposure, all time points ([3]; 0-8 h post UV, with or without UV exposure): remained dispersed at all time points evaluated; saturation point of endosome dispersion ([3]; 30 minutes or 1 hr treatment followed by UV exposure): ~70%; Percentage of endosomes dispersion (recovery) [3, 10]: 58.0 ± 4.3%; Percentage of endosomes dispersion (recovery) [3, 11]: 71.2 ± 2.5%; Percentage of endosomes dispersion (recovery) [3, 12]: 69.7 ± 3.6%; Percentage of endosomes dispersion (recovery) [3, 13]: 70.4 ± 3.1%; Percentage of endosomes dispersion (recovery) [3, 14]: 70.8 ± 1.9%; Percentage of endosomes dispersion (recovery) [3, 15]: 69.1 ± 3.2%; Percentage of endosomes dispersion (recovery) [3, 16]: 68.9 ± 3.2%; Percentage of endosomes dispersion (recovery) [3, 17]: 70.7 ± 4.0%; Percentage of endosomes dispersion (recovery) [3, 18]: 69.5 ± 1.9%; Percentage of endosomes dispersion (recovery) [3, 19]: 70.3 ± 3.3%
CC[C@H](C(=O)N1CCCC[C@H]1C(=O)O[C@H](CCc1ccc(OC)c(OC)c1)c1cccc(OCC(=O)OC(C)c2ccc(C(C)OC(=O)COc3cccc([C@@H](CCc4ccc(OC)c(OC)c4)OC(=O)[C@@H]4CCCCN4C(=O)[C@@H](CC)c4cc(OC)c(OC)c(OC)c4)c3)c([N+](=O)[O-])c2)c1)c1cc(OC)c(OC)c(OC)c1 (stereo partly shown) [PhAP] | can also form complex between LC8 and FKBP-LC8TRAP efficiently | 47.9 ± 8.1 | 48.0 ± 5.0 | 57.5 ± 2.4 | 67.5 ± 7.0 | 29.0 ± .8% | 47.2 ± 2.5 | 49.1 ± 3.3 | 57.2 ± 5.2 | 71.2 ± 2.0 | 69.0 ± 4.9 | 2 | 67.7 ± 4.9 | 67.5±7.0 | 500 | 53.2±2.4 | 53.7 ± 4.0 | 50.8 ± 2.3 | 48.0 ± 0.5 | 49.3 ± 6.7 | concentration required to produce a complex band of the same intensity as the sample treated with AP ([1]; equimolar mixture of LC8 and LC8TRAP, relative to AP): 2 ×; Percentage of endosomes dispersion ([2]; 50 nM, 2 hr. of treatment): 55.5 ± 1.3%; Percentage of endosomes dispersion (recovery) [3, 10]: 57.8±8.0%; Percentage of endosomes dispersion (recovery) [3, 11]: 56.4 ± 1.7%; Percentage of endosomes dispersion (recovery) [3, 12]: 55.7 ± 8.8%; Percentage of endosomes dispersion (recovery) [3, 13]: 46.7 ± 0.6%; Percentage of endosomes dispersion (recovery) [3, 14]: 48.1 ± 2.0%; Percentage of endosomes dispersion (recovery) [3, 15]: 69.5 ± 2.4%; Percentage of endosomes dispersion (recovery) [3, 16]: 66.3 ± 3.2%; Percentage of endosomes dispersion (recovery) [3, 17]: 57.6 ± 2.6%; Percentage of endosomes dispersion (recovery) [3, 18]: 44.1±2.3%; Percentage of endosomes dispersion (recovery) [3, 19]: 48.9±3.9%
